US4704393A, “1-substituted 5-fluorouracil useful for inhibiting the aggregation of platelets” (Terumo Kabushiki Kaisha, priority 1983, dated 1987)
pIC50: −log10 of the molar value. Where two headings read alike, the source gives them in different places.

Key:
P388 cells = experiment: Chemotherapeutic function: life elongation ratio (ILS %) of mice intra-abdominally transplanted with P388 cells; settings: for toxicity compared with 5-FU in P388-bearing mice: 50 mg/kg/day (Example 1 compound), 70 mg/kg/day (Examples 2 and 3 compounds); for chemotherapeutic function compared with 5-FU: P388 mice, Tables 1 and 2; for ILS (%) / Incremental Life Support ILS (%): intra-abdominal, once daily; for Incremental Life Support ILS (%): five consecutive days
From the text: To CDFl mice (males five weeks old), 1×10^6 P388 cells/mouse were intra-abdominally transplanted.
By following the procedure described above, each suspension of 0.5% of 1-(5,8,11,14,17-eicosapentaenoyloxy-meyhyl)-5-fluorouracil of Example 2 and 0.5% of 1-(4,7,10,13,16,19-docosahexenoyloxymethyl)-5-fluorouracil of Example 3 in carboxymethyl celloulose was intra-abdominally administered once daily to other mice of the same description to test for life elongation ratio.

[1] = system: platelet aggregation induced by the arachidonic acid; experiment: Platelet aggregation inhibition in rabbit PRP, induced by arachidonic acid; assay type: cell-based; settings: Oryctolagus cuniculus
From the text: (§1) With a syringe containing an aqueous 3.8% sodium citrate solution (one volume), blood (nine volumes) was collected from a rabbit through the carotid artery. For this blood, blood plasma abounding with blood platelets (PRP: 500,000/μ1) was obtained by centrifugal separation. The compound of the present invention was used on the PRP, with arachidonic acid or collagen as a coagulation inducer, to test for plastocytic coagulation depressing function.
as §1, with “From” for “For”, “400,000/μ)” for “500,000/μ1)”, “an aggregation” for “a coagulation”, “platelet aggregation inhibiting” for “plastocytic coagulation depressing”

[2] = system: platelet aggregation induced by collagen; experiment: Platelet aggregation inhibition in rabbit PRP, induced by collagen; assay type: cell-based; settings: Oryctolagus cuniculus, collagen 25 μg/ml
From the text: as §1
as §1, with “From” for “For”, “400,000/μ)” for “500,000/μ1)”, “an aggregation” for “a coagulation”, “platelet aggregation inhibiting” for “plastocytic coagulation depressing”

in vivo = settings: mouse, ip
From the text: To ICR mice (male, seven weeks old), 1-(9,12,15-octadecatrienoyloxymethyl)-5-fluorouracil, 1-(5,8,11,14,17-eicosapentaenoyloxymethyl)-5-fluorouracil, and 1-(4,7,10,13,16,19-docosahexenoyloxymethyl)-5-fluorouracil were intra-abdominally administered to test for acute toxicity.

[3] = arachidonic acid 80 μM, rabbit PRP 400,000/μ, read-out: 50% depression concentration (IC50) on platelet aggregation

Row | Structure (SMILES) | toxicity compared with 5-FU in P388-bearing mice (P388 cells) | chemotherapeutic function compared with 5-FU (P388 cells) | ILS (%) (P388 cells; Table 2, 3 mg/kg/day) | ILS (%) (P388 cells; Table 2, 10 mg/kg/day) | ILS (%) (P388 cells; Table 2, 30 mg/kg/day) | ILS (%) (P388 cells; Table 2, 70 mg/kg/day) | ILS (%) (P388 cells; Table 2, 100 mg/kg/day) | pIC50 [1, 3] | pIC50 ([2]; rabbit PRP 400,000/μ) | LD50 (in vivo) | Incremental Life Support ILS (%) (P388 cells; Table 1, 5 mg/kg/day) | Incremental Life Support ILS (%) (P388 cells; Table 1, 10 mg/kg/day) | Incremental Life Support ILS (%) (P388 cells; Table 1, 20 mg/kg/day) | Incremental Life Support ILS (%) (P388 cells; Table 1, 30 mg/kg/day) | pIC50 ([2]; rabbit PRP 500,000/μl) | also measured
1 | CCC=CCC=CCC=CCC=CCC=CCCCC(=O)OCn1cc(F)c(=O)[nH]c1=O [1-(5,8,11,14,17-eicosapentaenoyloxymethyl)-5-flourouracil] | less toxic than 5-FU | equal to or better than the function of 5-FU | 18% | 27% | 40% | 36% | 19% | 3.92 | 3.15 | > 500 mg/kg | – | – | – | – | – | –
2 | O=c1[nH]cc(F)c(=O)[nH]1 [Example 5-FU, 5-fluorouracil] | – | – | 20% | 38% | -8% | – | – | < 3.00 | ≤ 3.00 | – | 35% | 47% | 62% | -17% | 3.28 | days of survival compared with control group (P388 cells; 30 mg/kg/day): smaller numbers of days of survival on the mice treatd than the mice of the control group; inhibition at 1000 µM ([1]; arachidonic acid 70 μM, rabbit PRP 500,000/μl, at 1×10^-3 M): 4%; LD50 (in vivo; in vivo): 235 mg/kg
3 | CCC=CCC=CCC=CCC=CCC=CCC=CCCC(=O)OCn1cc(F)c(=O)[nH]c1=O [1-(4,7,10,13,16,19-docosahexenoyloxymethyl)-5-fluorouracil] | less toxic than 5-FU | equal to or better than the function of 5-FU | 17% | 34% | 47% | 30% | 22% | 4.27 | 4.05 | > 500 mg/kg | – | – | – | – | – | –
4 | CC/C=C\C/C=C\C/C=C\CCCCCCCC(=O)OCn1cc(F)c(=O)[nH]c1=O [1-(9,12,15-octadecatrienoyloxymethyl)-5-fluorouracil] | less toxic than 5-FU | equal to or better than the function of 5-FU | – | – | – | – | – | – | – | > 500 mg/kg | 23% | 52% | 71% | 64% | 4.47 | Incremental Life Support ILS (%) (P388 cells; Table 1, 50 mg/kg/day): 47%; Incremental Life Support ILS (%) (P388 cells; Table 1, 100 mg/kg/day): 7%; pIC50 ([1]; arachidonic acid 70 μM, rabbit PRP 500,000/μl, read-out: 50% inhibition concentration (IC50) on platelet aggregation): 3.19
